Assay [1] has as its target T1, human siglec-2 (CD22) (Homo sapiens, UniProt P20273).
T1 construct: Residues 1–332 of human Siglec-2 (MW 140 kDa, purity > 95%) were cloned in frame with human IgG1 Fc and a C-terminal His6; made in house
T1 sequence (P20273 20-332): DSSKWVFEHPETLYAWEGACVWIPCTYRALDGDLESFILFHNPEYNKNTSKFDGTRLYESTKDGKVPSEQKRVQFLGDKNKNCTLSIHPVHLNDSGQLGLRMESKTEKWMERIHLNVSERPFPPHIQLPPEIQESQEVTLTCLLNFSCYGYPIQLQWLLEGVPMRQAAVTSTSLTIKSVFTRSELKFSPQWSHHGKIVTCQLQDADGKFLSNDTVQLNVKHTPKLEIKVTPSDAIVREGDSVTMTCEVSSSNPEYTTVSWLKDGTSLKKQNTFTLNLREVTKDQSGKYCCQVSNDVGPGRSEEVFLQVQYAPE
Briefly: CUPRA library screening and affinity, siglec-2. The assay is classed as binding. The following applies: for average DI: mean of 4 DIi values.

The target of assay [2] is Sambucus nigra lectin (SNA) (Sambucus nigra, UniProt Q41358). It counts as binding.
Assay [3] has as its system Maackia amurensis lectins (MAA). Nature of the assay: CUPRA library screening and affinity, MAA. The assay is classed as binding. The following applies: 50uM MAA; mean of 4 DIi values, FigS3c. The procedure: (§1) Unless otherwise noted, the measurements were performed at 25 °C. […] We identified specific ligands from the depletion index (DIi, Eq. 1) – the change in the fractional abundance (Fi, Eq. 2) ratio of ligand i-bound and free ^UniPproxy ions upon addition of GBP. Prior to calculating Fi, we treated each mass spectrum with the Sliding Window Adducts Removal Method (SWARM)[18] to remove contributions to the abundance of ^UniPproxy -OS^mod complex ions from adducts, formed by the ESI process, of neighbouring complex ions (Supplementary Fig. 2). Shown in Fig. 2a is a summary of the DIi measured by CUPRA screening of the 66-component library against S4 (50 μM). As expected, the average DIi for this negative control is close to 1.0 (0.99 ± 0.03). In contrast, CUPRA screening against the positive controls produced decreases in DIi for one or more of the library components. […] Application of CUPRA to human CD22, part of an important class of Neu5Ac-binding GBPs implicated in both innate and adaptive immunity, correctly identified HMO08 as a ligand (Supplementary Fig. 4a). CUPRA screening of MAA at high concentration (50 μM) identified HMO03 and GA06 as ligands. […]
(§2) Using SWARM-treated mass spectra, DIi was calculated for each ligand from the ratio of the fractional abundances (Fi) of ligand (i)-bound and free ^UniPproxy ions in the presence (+GBP) and absence (-GBP) of GBP, Eqs. […]

The target of assay [4] is streptavidin homotetramer (S4) (Streptomyces avidinii, UniProt P22629). Briefly: CUPRA library screening against negative control streptavidin. More on the design: key: ratio change on GBP addition; ~1.0 = no binding (negative control). The following applies: depletion index, 50 μM streptavidin. It counts as binding.
Assay [5] deals with Cholera toxin B subunit homopentamer (CTB5) (Vibrio cholerae serotype O1, UniProt P01556). The assay is classed as binding.
Assay [6] addresses human carbonic anhydrase type 1 (Homo sapiens, UniProt P00915). Briefly: Direct ESI-MS affinity of OSmod for the universal proxy protein (UniPproxy).
For assay [7], the system named is family 51 carbohydrate binding module (CBM51). Briefly: CUPRA library screening and affinity, CBM51. The following applies: 25uM CBM51; mean of 4 DIi values, FigS3a. The procedure: as §1, §2

Structures are written as SMILES. Values joined by “and” are separate entries in the source; they are usually repeats but may differ in a detail not shown here. Equal entries are not always repeated.

Chain of streptavidin homotetramer (S4) (P22629 25-183): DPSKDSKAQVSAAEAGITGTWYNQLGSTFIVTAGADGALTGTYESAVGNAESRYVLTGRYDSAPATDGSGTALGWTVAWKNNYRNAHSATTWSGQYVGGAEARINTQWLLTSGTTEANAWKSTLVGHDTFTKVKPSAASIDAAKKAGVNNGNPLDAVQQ
Chain of Sambucus nigra lectin (SNA) (Q41358 309-570 limits assumed): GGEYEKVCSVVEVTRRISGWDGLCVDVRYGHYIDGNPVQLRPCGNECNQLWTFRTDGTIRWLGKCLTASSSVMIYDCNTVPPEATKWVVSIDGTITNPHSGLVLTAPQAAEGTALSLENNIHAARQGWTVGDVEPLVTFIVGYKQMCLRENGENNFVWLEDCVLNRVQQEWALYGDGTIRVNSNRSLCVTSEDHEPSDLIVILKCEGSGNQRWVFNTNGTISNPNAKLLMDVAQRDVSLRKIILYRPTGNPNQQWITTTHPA
Chain of Sambucus nigra lectin (SNA) (Q41358 29-289 partner limits assumed): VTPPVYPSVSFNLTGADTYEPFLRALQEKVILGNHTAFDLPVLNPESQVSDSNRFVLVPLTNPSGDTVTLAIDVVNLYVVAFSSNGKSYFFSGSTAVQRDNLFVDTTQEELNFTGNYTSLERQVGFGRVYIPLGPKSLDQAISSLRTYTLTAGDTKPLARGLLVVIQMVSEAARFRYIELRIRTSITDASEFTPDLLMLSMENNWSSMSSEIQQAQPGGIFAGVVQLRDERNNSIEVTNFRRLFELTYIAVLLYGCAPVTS
Chain of Cholera toxin B subunit homopentamer (CTB5) (P01556 22-124 limits assumed): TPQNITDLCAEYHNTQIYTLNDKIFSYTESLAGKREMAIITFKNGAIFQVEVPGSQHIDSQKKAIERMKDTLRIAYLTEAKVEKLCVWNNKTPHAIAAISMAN
Chain of human carbonic anhydrase type 1 (P00915 whole entry): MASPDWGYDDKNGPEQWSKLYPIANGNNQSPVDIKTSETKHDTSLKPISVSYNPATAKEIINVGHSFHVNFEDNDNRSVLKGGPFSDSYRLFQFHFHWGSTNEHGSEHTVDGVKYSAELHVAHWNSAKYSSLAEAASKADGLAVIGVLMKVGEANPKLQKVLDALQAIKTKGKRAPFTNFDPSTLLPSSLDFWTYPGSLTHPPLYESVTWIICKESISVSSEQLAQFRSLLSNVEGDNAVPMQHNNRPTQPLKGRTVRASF

Regarding `CC(=O)N(CCOCCOCCNC(=O)C(Cc1ccccc1)NC(=O)C(Cc1ccccc1)NC(=O)CCCC(=O)NCCc1ccc(S(N)(=O)=O)cc1)C1OC(CO)C(OC2OC(CO)C(O)C(O)C2O)C(O)C1O` (stereo not drawn) [HMO01, Galβ1-4Glc-CL], the “average DI” value in assay [1] (25uM CD22) was 1.013; in assay [1] (25uM CD22 at 0C), 1.021; in assay [2], 1.032; in assay [3] it was 1.065; in assay [4] (mean of 4), 0.9888; in assay [5] it was 0.9932 and 0.9587 and 1.004. For the same molecule, the “average DI” value in assay [7] is recorded as 1.026. The “DIi(25uM CD22)” value turned out to be 1.023 in assay [1] (25uM CD22, replicate column 1 of 4); 1.029 in assay [1] (25uM CD22, replicate column 2 of 4); 0.9963 in assay [1] (25uM CD22, replicate column 3 of 4); 1.002 in assay [1] (25uM CD22, replicate column 4 of 4). Moreover, the “DIi(25uM CD22 at 0C)” value in assay [1] (25uM CD22 at 0C, replicate column 1 of 4) was found to be 1.003; in assay [1] (25uM CD22 at 0C, replicate column 2 of 4) it was 1.007; in assay [1] (25uM CD22 at 0C, replicate column 3 of 4), 1.036; in assay [1] (25uM CD22 at 0C, replicate column 4 of 4), 1.04. Further, the “DIi(5uM SNA)” value in assay [2] is 1.0284 and 1.03 and 1.033 and 1.035. The “DIi(50uM S4)” value is recorded as 0.9878 in assay [4] (measurement 1 of 4), 0.986 in assay [4] (measurement 2 of 4), 0.9917 in assay [4] (measurement 3 of 4) and 0.9898 in assay [4] (measurement 4 of 4). In addition, the “DIi(2uM CTB5)” value in assay [5] was 0.9935 and 0.9881 and 0.9983 and 0.9929. In addition, in assay [5], the “DIi(10uM CTB5)” value is 0.9693 and 0.964 and 0.9533 and 0.9481. The “DIi(10uM CTB5 at 0C)” value in assay [5] was 1.005 and 0.995 and 1.012 and 1.002. Moreover, the Kd in assay [6] was determined as 5.1 ± 1.4 µM.

By Kd is commonly meant the free concentration of one partner at which half of the binding sites on the other are occupied at equilibrium, for simple one-to-one binding.

For the origin of these results see publication PMC6646405, “A quantitative, high-throughput method identifies protein–glycan interactions via mass spectrometry” (Communications Biology, 2019).
